The target of one assay is Cathepsin D (Cat D) (Homo sapiens, UniProt P07339). In words: In vitro enzymatic Cathepsin D (Cat D) FRET assay. It counts as biochemical. As to the method:
In Vitro Enzymatic Cathepsin D (Cat D) FRET (Fluorescence Resonance Energy Transfer) Assay
Recombinant Cat D was expressed in CHO cells. The assay buffer for CathepsinD is 0.05 M citrate pH 3.5, 10% DMSO final, 5 mM CHAPS. The Cat D enzyme (9 nM) is pre-incubated for one hour with inhibitors, typically in about 1 uL of DMSO according to a serial dilution, is added thereto. The assays are effectively started by the addition of different FRET substrates (20 nM for Cat D) and the combination is incubated for one hour. The FRET assay is terminated with by addition of Tris buffer, which raises the pH to neutrality, and the fluorescence is determined. The FRET substrate is a peptide with commercially available fluorophore and quencher, on opposite sides of the BACE cleavage site. The Cat D substrate peptide sequence is based on sequence #1 of Table 1 from Gulnik et al. FEBS Letters v413 p 379-384 1997. Proteolytic cleavage of the FRET substrate releases quenching of fluorescence (Cat D excitation 500 nm and emission 580 nm). […]
See, for instance, examples 8, 12, 15, 16, 18, 21-23, 24, 25, 26, 29, 30, 32, 41-42, 45, 53, 54, 57, 63, 67-69, 72-74, 76, 79-81, 83 & 84 (to point to just a few; referring to data in Table 2). […] See, for instance, examples 8, 12, 15, 18, 21-23, 25, 29, 30, 32, 41-42, 45, 54, 57, 67-68, 72-73, 76, 80-81, 84, 86, 91-92 & 100 (to point out those from compound examples 1-100; and with reference to data in Table 2).

Assay [1] has as its target Beta Secretase enzyme (BACE) (Homo sapiens, UniProt P56817). In words: In vitro enzymatic BACE FRET assay. The conditions noted are these: average IC50; read-out: BACE1 FRET assay IC50. It counts as biochemical. The method, then:
In Vitro Enzymatic BACE FRET (Fluorescence Resonance Energy Transfer) Assay (Enzyme Assay Data in the Example Table I)
The assay buffer used in this screen is 0.05 M acetate, pH 4.2, 10% DMSO final, 100 uM genapol (which is a nonionic detergent, below its Critical Micelle Concentration). The Beta Secretase enzyme (0.2 nM) is pre-incubated for one hour with inhibitors, typically in about 1 uL of DMSO according to a serial dilution, are added thereto. This assay is effectively started by the addition of FRET substrate (50 nM) and the combination is incubated for one hour. The FRET assay is terminated with by addition of Tris buffer, which raises the pH to neutrality, and the fluorescence is determined. The FRET substrate is a peptide with commercially available fluorophore and quencher, on opposite sides of the BACE cleavage site. Proteolytic cleavage of the FRET substrate releases quenching of fluorescence (excitation 488 nm and […]).

Assay [2] relates to Aβ 40 in conditioned medium of cells stably expressing Amyloid Precursor Protein (APP). In words: In vitro BACE cell-based assay (Aβ 40 sandwich ELISA). The settings on record: Homo sapiens, HEK293; HEK cell; average IC50. As to the method: In Vitro BACE Cell-Based Assay
The cell-based assay measures inhibition or reduction of […] in conditioned medium of test compound treated cells expressing amyloid precursor protein.
Cells stably expressing Amyloid Precursor Protein (APP) were plated at a density of 40K cells/well in 96 well plates (Costar). The cells were cultivated for 24 hours at 37° C. and 5% CO2 in DMEM supplemented with 10% FBS. The test compounds were then added to cells in 10-point dose response concentrations with the starting concentration being either 100 μM or 10 μM. The compounds were diluted from stock solutions in DMSO and the final DMSO concentration of the test compounds on cells was 0.1%. After 24 h of incubation with the test compounds the supernatant conditioned media was collected and the Aβ 40 levels were determined using a sandwich ELISA. The IC50 of the compound was calculated from the percent of control or percent inhibition of Aβ 40 as a function of the concentration of the test compound.
The sandwich ELISA to detect Aβ 40 was performed in 96 well microtiter plates, which were pre-treated with goat anti-rabbit IgG (Pierce). The capture and detecting antibody pair that were used to detect Aβ 40 from cell supernatants were affinity purified pAb40 (Biosource) and biotinylated 6E10 (Signet Labs Inc.), respectively. The optimal concentration for the pAb40 antibody was 3 μg/ml in Superblock/TBS (Pierce) that was supplemented with 0.05% Tween 20 (Sigma). Optimal concentration for the detection antibody 6E10-biotinylated was 0.5 μg/ml in Superblock/TBS (Pierce) that had been supplemented with 2% normal goat serum and 2% normal mouse serum.
Cellular supernatants were incubated with the capture antibody for 3 h at 4° C., followed by 3 wash steps in TBS-tween (0.05%). The detecting antibody incubation was for 2 h at 4° C., again followed by the wash steps as described previously. The final readout of the ELISA is Time-Resolved Fluorescence (counts per minute) using Delfia reagents Streptavidin-Europium and Enhancement solutions (Perkin Elmer) and the Victor 2 multilabel counter (Perkin Elmer).
In general terms: An ELISA detects its analyte on a solid surface through an enzyme-linked reagent.

Where [3] appears, read: text summary referring to data in Table 2.

Where two headings read alike, the source gives them in different places.

This passage reports IC50 results from patent publication US9309263B2, “Fused multi-cyclic sulfone compounds as inhibitors of beta-secretase and methods of use thereof” (AMGEN INC., priority 2013, dated 2016).

Beta Secretase enzyme (BACE), sequence (P56817 46-501): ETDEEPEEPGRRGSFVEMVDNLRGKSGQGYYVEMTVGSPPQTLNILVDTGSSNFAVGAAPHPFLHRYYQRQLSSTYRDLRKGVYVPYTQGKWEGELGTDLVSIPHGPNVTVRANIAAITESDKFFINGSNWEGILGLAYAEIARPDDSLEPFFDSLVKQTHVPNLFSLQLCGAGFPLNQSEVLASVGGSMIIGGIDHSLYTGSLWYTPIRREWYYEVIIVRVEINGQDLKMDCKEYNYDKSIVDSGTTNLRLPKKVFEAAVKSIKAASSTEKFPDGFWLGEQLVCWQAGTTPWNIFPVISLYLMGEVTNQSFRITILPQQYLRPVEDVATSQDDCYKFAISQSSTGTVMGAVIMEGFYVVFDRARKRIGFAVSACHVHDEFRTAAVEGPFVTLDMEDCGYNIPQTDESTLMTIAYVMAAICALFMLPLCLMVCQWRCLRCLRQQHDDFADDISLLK
Cathepsin D (Cat D), sequence (P07339 65-412, species assumed): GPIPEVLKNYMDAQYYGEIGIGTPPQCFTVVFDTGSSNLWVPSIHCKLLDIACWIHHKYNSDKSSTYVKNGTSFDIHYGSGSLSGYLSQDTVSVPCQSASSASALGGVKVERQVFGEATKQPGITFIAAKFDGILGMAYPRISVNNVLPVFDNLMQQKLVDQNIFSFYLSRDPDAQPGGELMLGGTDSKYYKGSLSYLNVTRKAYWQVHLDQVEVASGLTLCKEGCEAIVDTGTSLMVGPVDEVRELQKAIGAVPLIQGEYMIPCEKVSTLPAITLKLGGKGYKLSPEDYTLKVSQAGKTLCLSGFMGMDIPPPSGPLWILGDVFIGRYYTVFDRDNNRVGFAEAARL

What is called IC50 is the concentration at which inhibition is half-maximal. In the case of `COc1cnc(C(=O)Nc2ccc3c(c2)[C@@]2(C)N=C(N)C(C)(C)S(=O)(=O)[C@@H]2CCC3)cn1` [Example 10, N-((4aR,11bR)-2-amino-3,3,11b-trimethyl-4,4-dioxido-3,4a,5,6,7,11b-hexahydrobenzo[3,4]cyclohepta[1,2-b][1,4]thiazin-10-yl)-5-methoxy-2-pyrazinecarboxamide], the IC50 at Cathepsin D (Cat D) (read-out: CatD IC50) is 340 µM; in assay [1], 11 nM; in assay [2], 4 nM.
For `Cc1cc(Cl)cnc1C(=O)Nc1ccc2c(c1)[C@@]1(C)N=C(N)C(C)(C)S(=O)(=O)[C@@H]1CCC2` [Example 11, N-((4aR,11bR)-2-amino-3,3,11b-trimethyl-4,4-dioxido-3,4a,5,6,7,11b-hexahydrobenzo[3,4]cyclohepta[1,2-b][1,4]thiazin-10-yl)-5-chloro-3-methyl-2-pyridinecarboxamide], in that order: 217 µM, 5 nM and 8 nM.
In the case of `Cc1cc(C#N)cnc1C(=O)Nc1ccc2c(c1)[C@@]1(C)N=C(N)C(C)(C)S(=O)(=O)[C@@H]1CCC2` [Example 12, N-((4aR,11bR)-2-amino-3,3,11b-trimethyl-4,4-dioxido-3,4a,5,6,7,11b-hexahydrobenzo[3,4]cyclohepta[1,2-b][1,4]thiazin-10-yl)-5-cyano-3-methyl-2-pyridinecarboxamide], the IC50 at Cathepsin D (Cat D) (read-out: CatD IC50) is 1040 µM; on Cathepsin D (Cat D) (setting [3]), > 1200 µM; in assay [1] it was 3 nM; in assay [2], 1 nM.
On to `COc1cccnc1Nc1ccc2c(c1)[C@@]1(C)N=C(N)C(C)(C)S(=O)(=O)[C@@H]1CCO2` [Example 13, (4aR,11bR)-N^~10^~-(3-methoxy-2-pyridinyl)-3,3,11b-trimethyl-4a,5,6,11b-tetrahydro-3H-[1]benzoxepino[4,5-b][1,4]thiazine-2,10-diamine 4,4-dioxide], for which the figures for the IC50 (on Cathepsin D (Cat D) (read-out: CatD IC50); in assay [1]; in assay [2]) were 369 µM, 94 nM and 73 nM, respectively.
Regarding `CC#C[C@H](C)Oc1cnc(C(=O)Nc2ccc3c(c2)[C@@]2(C)N=C(N)C(C)(C)S(=O)(=O)[C@@H]2CCO3)cn1` [Example 15, N-((4aR,11bR)-2-amino-3,3,11b-trimethyl-4,4-dioxido-4a,5,6,11b-tetrahydro-3H-[1]benzoxepino[4,5-b][1,4]thiazin-10-yl)-5-(((1S)-1-methyl-2-butyn-1-yl)oxy)-2-pyrazinecarboxamide], the half-maximal inhibitory concentration (IC50) on Cathepsin D (Cat D) (read-out: CatD IC50) was 1970 µM; on Cathepsin D (Cat D) (setting [3]), > 1200 µM; in assay [1], 3 nM; in assay [2], 0.5 nM.
The matching figures for `CC#C[C@@H](C)Oc1cnc(C(=O)Nc2ccc3c(c2)[C@@]2(C)N=C(N)C(C)(C)S(=O)(=O)[C@@H]2CCO3)cn1` [Example 16, N-((4aR,11bR)-2-amino-3,3,11b-trimethyl-4,4-dioxido-4a,5,6,11b-tetrahydro-3H-[1]benzoxepino[4,5-b][1,4]thiazin-10-yl)-5-(((1R)-1-methyl-2-butyn-1-yl)oxy)-2-pyrazinecarboxamide]: 979 µM, > 800 µM, 30 nM and 138 nM.
As to `Cc1cc(Cl)cnc1C(=O)Nc1ccc2c(c1)[C@]1(C)N=C(N)C(C)(C)S(=O)(=O)[C@H]1CCO2` [Example 17, N-((4aS,11bS)-2-amino-3,3,11b-trimethyl-4,4-dioxido-4a,5,6,11b-tetrahydro-3H-benzo[6,7]oxepino[4,5-b][1,4]thiazin-10-yl)-5-chloro-3-methylpicolinamide], the values for the IC50 (on Cathepsin D (Cat D) (read-out: CatD IC50); in assay [1]; in assay [2]) were > 400 µM, 1460 nM and 833 nM, respectively.
As to `Cc1cc(Cl)cnc1C(=O)Nc1cnc2c(c1)[C@@]1(C)N=C(N)C(C)(C)S(=O)(=O)[C@@H]1CCO2` [Example 18, N-((4aR,11bR)-2-amino-3,3,11b-trimethyl-4,4-dioxido-4a,5,6,11b-tetrahydro-3H-pyrido[3′,2′:6,7]oxepino[4,5-b][1,4]thiazin-10-yl)-5-chloro-3-methyl-2-pyridinecarboxamide], the IC50 is 1290 µM at Cathepsin D (Cat D) (read-out: CatD IC50), > 1200 µM at Cathepsin D (Cat D) (setting [3]), 6 nM in assay [1] and 14 nM in assay [2].
